Data from US10736822B2, “Root canal treatment material and root canal treatment kit” (FUJIFILM Corporation, priority 2016, dated 2020).

Assay: Evaluation of curability under moist environment (distilled water added, Vicat needle)
Format: physicochemical
Conditions: conclusion in words from Table 1
Protocol: The curability of each of the root canal treatment materials according to the examples and the comparative examples was evaluated through the following method. First, a cylindrical mold having an inner diameter of 5 mm and a height of 1 mm was filled with each of the root canal treatment materials which was then subjected to light irradiation with a light irradiator (“G-Light Prima II Plus” manufactured by GC) for 40 seconds to produce a test piece. […] A needle mark was visually checked and evaluated according to the following criteria.
The curability of each of the root canal treatment materials according to the examples and the comparative examples was evaluated in a moist environment through the following method. First, 15 μL of distilled water was added to 0.15 g of each of the root canal treatment materials which was then subjected to light irradiation with the light irradiator (“G-Light Prima II Plus” manufactured by GC) for 20 seconds to produce a test piece. The curability of each of the obtained test pieces was evaluated in the same manner as in <Evaluation of Curability> described above.

C=CC(=O)NCCCOCC(COCCCNC(=O)C=C)(COCCCNC(=O)C=C)NC(=O)C=C [compound (I)]
curability in a moist environment: particularly excellent curability in a moist environment
